Experimental findings from DBAASP are described below.

The structures appear in SMILES notation. Converted amounts (≈) assume the structure as drawn. “And” between values parts separate entries of the source, which are not always exact repeats. Equal values may be shown once. Where only a bound is given, the exact number is not on record here.

Holding throughout (assay): ≥ marks a high value that may be exact or a test limit, other limits are often not marked, values filed in µg/mL are converted to µM
Test [1] has as its system Porphyromonas gingivalis W50.
Test [2] relates to Staphylococcus aureus ATCC 49525.
Test [3] concerns Pseudomonas aeruginosa PAO1.
Test [4] relates to Escherichia coli O157:H7 CICC 21530.
Test [5] relates to Candida albicans CGMCC 2.2411.
The test system of test [6] is Bacillus subtilis ATCC 6633.
Test [7] deals with Salmonella enterica subsp. enterica serovar Enteritidis CVCC 3377.
Test [8] has as its system Pseudomonas aeruginosa CICC 10419.
The test system of test [9] is Salmonella enterica subsp. enterica serovar Pullorum CVCC 1802.
The subject of test [10] is Escherichia coli CVCC 195.
Test [11] has as its system Salmonella enterica subsp. enterica serovar Typhimurium ATCC 14028.
Test [12] concerns Enterococcus faecium CMCC 1.2136.
For test [13], the system named is Listeria ivanovii ATCC 19119.
Test [14] has as its system Pseudomonas aeruginosa CICC 21630.
In test [15] the test system is Streptococcus suis CVCC 606.
Test [16] deals with Staphylococcus aureus ATCC 43300.
In test [17] the test system is Escherichia coli CVCC 1515.
For test [18], the system named is Salmonella enterica subsp. enterica serovar Choleraesuis CVCC 503.
In test [19] the test system is Salmonella enterica subsp. enterica serovar Pullorum CVCC 1789.
The test system of test [20] is Staphylococcus aureus ATCC 25923.
Test [21] concerns Escherichia coli.
Test [22] deals with Escherichia coli ATCC 35218.
The test system of test [23] is Candida albicans 08022710.
Test [24] concerns Pseudomonas aeruginosa.
Test [25] concerns Enterococcus faecalis.
Test [26] has as its system Acinetobacter baumannii ATCC 19606.
In test [27] the test system is Escherichia coli ATCC 25922.
The subject of test [28] is Pseudomonas aeruginosa ATCC 27853.
In test [29] the test system is Staphylococcus aureus ATCC 6538.
The subject of test [30] is Mycobacterium tuberculosis CAS3.
For test [31], the system named is Candida albicans 08A802.
Test [32] relates to Mycobacterium tuberculosis H37Rv.
In test [33] the test system is Staphylococcus aureus 08A875.
Test [34] relates to Mycobacterium tuberculosis FYX.
Test [35] relates to Candida albicans ATCC 10231.
In test [36] the test system is Mycobacterium tuberculosis WXY.
Test [37] relates to Candida albicans ATCC 2002.
Test [38] relates to Staphylococcus epidermidis.
Test [39] has as its system Acinetobacter baumannii 1.
Test [40] relates to Escherichia coli K88.
Test [41] deals with Staphylococcus epidermidis ATCC 12228.
Test [42] has as its system Lacticaseibacillus rhamnosus 1.0936.
The test system of test [43] is Salmonella enterica subsp. enterica serovar Pullorum C79-13.
For test [44], the system named is Streptococcus agalactiae BNCC 185941.
Test [45] relates to Staphylococcus aureus ATCC 29213.
For test [46], the system named is Lacticaseibacillus rhamnosus 1.9021.
For test [47], the system named is Lacticaseibacillus rhamnosus 1.0911.
Test [48] relates to Lacticaseibacillus rhamnosus 8014.

In general, MIC refers to the smallest concentration in the dilution series that meets the test's criterion for growth inhibition. `CC[C@H](C)[C@H](NC(=O)[C@H](CCCCN)NC(=O)CN)C(=O)N[C@H](C(=O)N[C@@H](CCCCN)C(=O)N[C@@H](CC(C)C)C(=O)N[C@@H](CCCCN)C(=O)N[C@@H](C)C(=O)N[C@@H](CO)C(=O)N[C@@H](CC(C)C)C(=O)N[C@@H](CCCCN)C(=O)N[C@@H](CC(C)C)C(=O)N[C@@H](CC(C)C)C(N)=O)[C@@H](C)CC` [GKIIKLKASLKLL]: the MIC is ≥ 70.2 µM in [1]; ≥ 58.5 µM in test [2]; 5.61 µM and 7.3 µM in [3].
With `CC(C)[C@H](NC(=O)CNC(=O)[C@H](CC(N)=O)NC(=O)[C@H](CCCN=C(N)N)NC(=O)[C@H](Cc1ccc(O)cc1)NC(=O)[C@@H](NC(=O)[C@@H](NC(=O)[C@H](CC(N)=O)NC(=O)[C@H](Cc1c[nH]c2ccccc12)NC(=O)[C@H](Cc1ccccc1)NC(=O)CN)C(C)C)C(C)C)C(=O)N[C@@H](CCCN=C(N)N)C(=O)N[C@H](C(=O)N[C@@H](Cc1cnc[nH]1)C(=O)N[C@@H](CCCN=C(N)N)C(=O)N[C@@H](CCCN=C(N)N)C(=O)N[C@@H](CC(N)=O)C(=O)O)C(C)C` [GFWNVVYRNGVRVHRRN], the minimal inhibitory concentration (MIC) in [4] is 30.1 µM (≈ 64 µg/mL); in test [5], ≥ 60.1 µM; in [6] it was 30.1 µM (≈ 64 µg/mL); in test [7], 1.88 µM (≈ 4 µg/mL); in test [8], ≥ 60.1 µM; in [9], ≥ 60.1 µM. Moreover, the MIC in [10] was 30.1 µM (≈ 64 µg/mL); in [11], 60.1 µM (≈ 128 µg/mL); in test [12], 30.1 µM (≈ 64 µg/mL); in test [13], ≥ 60.1 µM; in test [14] it was ≥ 60.1 µM; in test [15], ≥ 60.1 µM. For the same compound, the MIC in test [16] was > 60.1 µM; in [17], ≥ 60.1 µM; in test [18], ≥ 60.1 µM; in test [19], ≥ 60.1 µM; in test [20] it was 0.939 µM (≈ 2 µg/mL).
Consider `CC(C)C[C@H](NC(=O)[C@H](CC(C)C)NC(=O)[C@H](CCCCN)NC(=O)[C@H](CCCCN)NC(=O)[C@@H](NC(=O)[C@H](C)N)C(C)C)C(=O)N[C@@H](CCCN=C(N)N)C(=O)N[C@@H](Cc1c[nH]c2ccccc12)C(=O)N[C@@H](Cc1c[nH]c2ccccc12)C(=O)N[C@@H](CO)C(=O)N[C@@H](CCCN=C(N)N)C(=O)N[C@@H](Cc1c[nH]c2ccccc12)C(=O)N[C@@H](Cc1c[nH]c2ccccc12)C(=O)N[C@@H](CCCCN)C(=O)N[C@@H](CCCCN)C(=O)O` [AVKKLLRWWSRWWKK], for which the MIC in test [21] was > 96.5 µM and 72.4 µM; in [22], ≥ 96.5 µM; in test [23], ≥ 96.5 µM; in [24], > 96.5 µM; in test [25], ≥ 72.4 µM; in test [6], ≥ 72.4 µM. Further, the MIC in test [26] is 72.4 µM (≈ 150 µg/mL); in test [27], > 96.5 µM; in test [28] it was > 96.5 µM; in test [29] it was > 96.5 µM; in test [30], 9.05 µM (≈ 18.8 µg/mL); in test [31], ≥ 72.4 µM. The minimum inhibitory concentration (MIC) in test [32] was 9.05 µM (≈ 18.8 µg/mL); in [33], ≥ 72.4 µM; in test [34], 9.05 µM (≈ 18.8 µg/mL); in test [35], > 96.5 µM; in test [36], 4.53 µM (≈ 9.38 µg/mL); in [20] it was > 96.5 µM. Further, the minimum inhibitory concentration (MIC) in test [37], in test [38] and in test [39] was ≥ 96.5 µM each time.
On to `CC(C)C[C@H](NC(=O)CNC(=O)[C@H](CCCCN)NC(=O)[C@H](Cc1c[nH]c2ccccc12)NC(=O)[C@H](CCCCN)NC(=O)CNC(=O)[C@H](CC(C)C)NC(=O)[C@H](CC(C)C)NC(=O)[C@@H](N)CCCCN)C(=O)N[C@@H](CC(C)C)C(=O)N[C@@H](CCCCN)C(N)=O` [KLLGKWKGLLK], for which the minimal inhibitory concentration (MIC) in test [40] was 4 µM (≈ 5.13 µg/mL); in [41], > 128 µM; in [4], ≥ 128 µM; in test [42], ≥ 128 µM; in [28], 32 µM (≈ 41 µg/mL); in [43] it was 8 µM (≈ 10.3 µg/mL). Besides, the MIC in test [44] is ≥ 128 µM; in [11], 128 µM (≈ 164 µg/mL); in [45], > 128 µM; in test [46], ≥ 128 µM; in test [47] it was ≥ 128 µM; in test [16] it was > 128 µM. For the same compound, the values for the minimum inhibitory concentration (MIC) in [18], in [48] and in [3] were ≥ 128 µM, ≥ 128 µM and 16 µM (≈ 20.5 µg/mL), respectively.
